# Results reported in patent publication US20230339896A1, “HPK1 INHIBITORS AND USES THEREOF” (QILU REGOR THERAPEUTICS INC., priority 2020, published 2023).
# Assays:
# [1] = Metabolic stability in liver microsomes, rat (RLM); format: in vitro ADME, Sprague Dawley Rat; details: 1 µM compound, NADPH; for half-life at 1 µM: Sprague Dawley, rat, liver microsomes, pH 7.4, 0.5 mg/mL protein, read-out: Metabolic Stability T½ (min), RLM
# Protocol: This assay is for determining the stability of test compound in liver microsomes. The study will be conducted in accordance with International Bioethical Standards “World Medical Association Declaration of
# Human, Sprague Dawley Rat, CD-1 mouse, Beagle Dog and Cynomolgus Monkey Liver Microsomes samples purchased from BD Gentest or RILD.
# 0.1 M Potassium phosphate buffer, pH 7.4: • Buffer A: 1.0 L of 0.1 M monobasic Potassium Phosphate buffer containing 1.0 mM EDTA • Buffer B: 1.0 L of 0.1 M Dibasic Potassium Phosphate buffer containing 1.0 mM EDTA • Buffer C (K-phosphate buffer): 0.1 M Potassium Phosphate buffer, 1.0 mM EDTA, pH 7.4 by titrating 700 mL of buffer B with buffer A while monitoring the pH meter
# • Prepare 3× test compound or positive control solutions: 500 µM spiking solution: add 10 µL of 10 mM DMSO stock solution into 190 µL ACN. • 1.5 µM spiking solution in microsomes (0.75 mg/mL): add 1.5 µL of 500 µM spiking solution and 18.75 µL of 20 mg/mL liver microsomes into 479.75 µL of K-phosphate buffer.
# Add 30 µL of 1.5 µM spiking solution containing 0.75 mg/ml microsomes solution to the wells designated for 45 min, 30 min, 15 min, 5 min and 0 min. Pre-incubate the plate at 37° C. for 5 minutes.
# Add 15 µL of NADPH stock solution (6 mM) to all of the wells, and start timing. Immediately, add 135 µL of ACN containing IS to the wells designated as Time 0.
# At 5 min, 15 min, 30 min and 45 min, add 135 µL of ACN containing IS to the wells, respectively.
# After quenching, centrifuge the reaction mixtures at 3220 x g for 10 min.
# Transfer 50 µL of the supernatant from each well into a 96-well sample plate containing 50 µL of ultra pure water (Millipore) for LC/MS analysis.
# The % parent remaining at each incubation time point is calculated by comparing to the peak area ratio (compound peak area/internal standard peak area) at T0 (0 minute incubation). The ln peak area ratio is plotted against time and the gradient of the line is determined. The half-life and metabolism of compounds is calculated based upon a natural log linear regression of the relative peak areas vs time. The half-life and intrinsic clearance (Clint) in microsomes are calculated using the equations below. • In Vitro T ½ (min) = 0.693/Elimination rate of constant (k) • Clint (µL/min/mg of microsomal protein) = (0.693 / In Vitro T ½) (Incubation Volume/ mg of microsomes)
# MDCK = MDCK permeability assay; format: in vitro ADME; details: pH 7.4
# Protocol: This assay is for generating screening data only, and to estimate the intestinal absorption potential of drug candidates. The study will be conducted in accordance with International Bioethical Standards “World MedicalAssociation Declaration of Helsinki.
# Cell line: • ▪ MDCK (ATCC), or MDCK MDR1 (NKI).
# Prepare donor buffer: • For A-to-B direction: • ✔ HBSS buffer with 0.3% DMSO and 5 µM Lucifer Yellow (LY): add 150 µL DMSO and 125 µL LY (2 mM) into 50 mL HBSS buffer (pH 7.4). • ✔ HBSS buffer with 0.1% DMSO and 5 µM Lucifer Yellow (LY): add 50 µL DMSO and 125 µL LY (2 mM) into 50 mL HBSS buffer (pH 7.4). • ✔ HBSS buffer with 5 µM Lucifer Yellow (LY): add 125 µL LY (2 mM) into 50 mL HBSS buffer (pH 7.4). • For B-to-A direction: • ✔ HBSS buffer with 0.3% DMSO: add 150 µL DMSO into 50 mL HBSS buffer (pH 7.4). • ✔ HBSS buffer with 0.1% DMSO: add 50 µL DMSO into 50 mL HBSS buffer (pH 7.4). • ✔ HBSS buffer without DMSO. • Prepare receiver buffer: • For A-to-B direction: Prepare HBSS buffer with 0.4% DMSO: add 200 µL DMSO into 50 mL HBSS buffer (pH 7.4) • For B-to-A direction: Prepare HBSS buffer with 0.4% DMSO and 5 µM LY: add 200 uL DMSO and 125 µL LY (2 mM) into 50 mL HBSS buffer (pH 7.4) • Controls: • Prepare 10 mM stock concentrations of compound in DMSO and Lucifer Yellow in assay buffer using the following formula: • (Actual Weight/Molecular Weight)/mL solvent =10 mM • Reference compound: Erythromycin, Metoprolol, Atenolol
# MDCK assay plates are seeded 3-4 days prior to running the assay. 24-well plates are seeded at a cell density of 0.88 × 10^5/well in a 400 µL apical chamber volume (2.2×10^5 /mL) with a 25 mL volume of growth medium to the 24-well basal chamber. Assay plates are generally provided with a growth medium change 24 hours prior to the assay.
# MDCK assay plates are rinsed with HBSS+ buffer prior to running the assay. After rinsing, fresh HBSS+ is added to the assay plate in a 400 µL apical chamber volume and a 0.8 mL HBSS+ basal chamber volume. Measure the electrical resistance across the monolayer using the Millicell ERS system ohm meter. (The cells will be used if TEER is higher than 100 ohm*cm^2).
# Preparation of the cell plates: • Remove the buffer from the apical side and basolateral side. Add 600 µL of donor solution (for A-to-B) or 500 µL of receiver solution (for B-to-A) to the apical wells based on plate map. • A fresh basolateral plate is prepared by adding 800 µL of receiver solution (for A-to-B) or 900 µL of donor solution (B-to-A) to the well of a new 24-well plate. • Put the apical plate and basolateral plate into 37° C. incubator.
# Preparation of analytical plate: • After 5 min, transfer 100 µL of samples from all donors (for both A-to-B and B-to-A) into appropriate wells of a sample plate for D0. And transfer 100 µL of samples from all apical chambers (the donor of A-to-B and receiver of B-to-A) into appropriate wells of a microplate for Lucifer Yellow D0 (D0 LY) • Lay the apical plate to the basolateral plate to start transport process. • At 90 min, separate the apical and basolateral plates and transfer 100 µL of samples from all donors (for both A-to-B and B-to-A) into appropriate wells of a new sample plate for D90, and transfer 200 µL of samples from all receivers into appropriate wells of a sample plate for R90. Transfer 100 µL of samples from all basolateral chambers (receiver of A-to-B and donor of B-to-A) into appropriate wells of a new microplate for Lucifer Yellow R90 (R90 LY). • Determine LY permeability by reading D0 LY and R90 LY at an excitation wavelength of 485 nm and an emission wavelength of 535 nm using a fluorescent plate reader. • Sample preparation: • For receiver solution: 60 µL of sample + 60 µL ACN with IS (200 ng/mL Osalmid) • For donor solution: 6 µL of sample + 54 µL 0.4% DMSO/HBSS + 60 µL ACN with IS (200 ng/mL Osalmid) […]
smiles,measurement,setting,value
"COc1cc2c(cc1Nc1ncc(Cl)c(N3CC(CC(=O)O)c4ccccc43)n1)CN(C)CC2 (stereo not shown) [Compound 8, reference compound]",half-life at 1 µM,[1],48.2 min
"COc1cc2c(cc1Nc1ncc(Cl)c(N3CC(C)(CC(=O)O)c4ccc(F)cc43)n1)CN(C)CC2 (stereo not shown) [Compound 10, reference compound]",half-life at 1 µM,[1],17 min
"COc1cc2c(cc1Nc1ncc(Cl)c(N3CC(C)(CC(=O)O)c4ccccc43)n1)CN(C)CC2 (single isomer, unassigned) [Example 2, (R)-2-(1-(5-chloro-2-((6-methoxy-2-methyl-1,2,3,4-tetrahydroisoquinolin-7-yl)amino)pyrimidin-4-yl)-3-methylindolin-3-yl)acetic acid or (S)-2-(1-(5-chloro-2-((6-methoxy-2-methyl-1,2,3,4-tetrahydroisoquinolin-7-yl)amino)pyrimidin-4-yl)-3-methylindolin-3-yl)acetic acid]",half-life at 1 µM,[1],38.4 min
"COc1cc2c(cc1Nc1ncc(Cl)c(N3CC(C(=O)O)c4ccccc43)n1)CN(C)CC2 (stereo not shown) [Compound 7, reference compound]",half-life at 1 µM,[1],4260 min
"CN1CCc2cc(F)c(Nc3ncc(Cl)c(N4C[C@](C)(CC(=O)O)c5ccccc54)n3)cc2C1 (single isomer, unassigned) [Example 5, (R)-2-[1-[5-chloro-2-[(6-fluoro-2-methyl-3,4-dihydro-1H-isoquinolin-7-yl)amino]pyrimidin-4-yl]-3-methyl-indolin-3-yl]acetic acid or (S)-2-[1-[5-chloro-2-[(6-fluoro-2-methyl-3,4-dihydro-1H-isoquinolin-7-yl)amino]pyrimidin-4-yl]-3-methyl-indolin-3-yl]acetic acid]",MDCK Permeability (A-B) (×10-6 cm/s),MDCK; A-B,11.9 ×10-6 cm/s
same,MDCK Permeability (B-A) (×10-6 cm/s),MDCK; B-A,52.3 ×10-6 cm/s
same,"Metabolic Stability T½ (min), RLM",[1]; 0.5 mg/mL protein,RLM: 23 min
